US20220081415A1, “Amino Acid Derivatives for the Treatment of Inflammatory Diseases” (The Roskamp Institute, priority 2019, published 2022)

test system: NF-kB activation induced by TNFα; assay: TNFα Luciferase assay: inhibition of NF-kB activation induced by TNFα in HEK293/NF-kB luciferase cells; format: cell-based; details: 25 ng/ml of TNF-α for four hours, quadruplicate, read-out: IC50, concentration at which NF-kB activation was reduced by 50%
Description: Determination of Inhibition of NF-kB Activation Induced by TNFα . . . In Vitro Assay
The ability of a compound disclosed herein to inhibit NFkB activation induced by TNFα was determined using the TNFα Luciferase assay. The HEK293/NF-kB luciferase cell line was obtained by cotransfection of pNFkB-luc vector with pHyg (Panomics, CA, USA) followed by hygromycin selection. HEK293/NFkB Luciferase cells were grown in DMEM medium supplemented with 10% fetal bovine serum, 100 U/ml of penicillin, 100 ng/ml of streptomycin/Fungizone, and 100 μg/ml of hygromycin B as the selecting agent. HEK293 NFkB Luciferase cells were grown in T75 flasks (Nunc™ Cell Culture Treated EasYFlasks™) in a cell culture incubator at 37° C. and 5% CO2.
Confluent T75 cell culture flasks (approximately 8-10 million of cells per flask) were washed with 10 ml of sterile PBS (without calcium and magnesium) under a biosafety cabinet. After aspiration of the PBS with a sterile glass pipette, the layer of cells (for each T75 flask) was covered with 1 ml of TrypLE™ Express without phenol red (Gibco) at room temperature. After one minute of incubation, HEK293 were mechanically resuspended in the TrypLE by tapping the side of the flask. The cells were then resuspended with 10 ml of pre-warmed complete culture medium and transferred to a conical tube. Cells were centrifuged for 5 minutes at 4000 rpm (1000 g) at room temperature. The cellular pellet was resuspended with 24 ml of pre-warmed cell culture media and […] of cell suspension (approximately 80,000 cells per well) was plated per well in 96-well cell culture plates (Costar #3599, Corning, N.Y., USA) using a multichannel pipette and reversed pipetting to prevent air bubble formation. After plating, the cells were maintained overnight in the cell culture incubator before being treated. For each 96 well cell culture plate, 8 wells were used as “control wells” (only culture medium added) and to 8 wells only TNFα was added. The NF-kB Luciferase reporter cell line was challenged with 25 ng/ml of TNF-α for four hours in the presence and absence (control conditions) of a dose range of the different compounds to be tested. For each compound, a dose range of concentrations was tested in quadruplicate and used to determine an IC50.
Luciferase activity was monitored using the Luc-Screen® Extended-Glow Luciferase Reporter Gene Assay System by chemoluminescence according to the instruction of the manufacturer (Invitrogen) and a BioTek Synergy HT plate reader (BioTek Instruments, VT, USA).

IC50 [µM]	Compound
750	mixture of 2-((S)-1-oxo-1-((R)-6-(pyridin-3-yl)-5,6-dihydropyridin-1(2H)-yl)butan-2-yl)isoindoline-1,3-dione and 2-((R)-1-oxo-1-((S)-6-(pyridin-3-yl)-5,6-dihydropyridin-1(2H)-yl)butan-2-yl)isoindoline-1,3-dione [Compound 6]
925	mixture of 2-((S)-1-oxo-1-((S)-6-(pyridin-3-yl)-5,6-dihydropyridin-1(2H)-yl)butan-2-yl)isoindoline-1,3-dione and 2-((R)-1-oxo-1-((R)-6-(pyridin-3-yl)-5,6-dihydropyridin-1(2H)-yl)butan-2-yl)isoindoline-1,3-dione [Compound 5]

Compound	IC50 [µM]
C[C@H](NC(=O)c1cccc([N+](=O)[O-])c1)C(=O)N1CC=CCC1c1cccnc1 (some centres unmarked) [Compound 9]	200

same assay, conditions: Homo sapiens, 4 h, 25 ng/ml of TNF-α for four hours, quadruplicate, read-out: IC50, concentration at which NF-kB activation was reduced by 50%

IC50 [µM]	Compound
8	COc1ccc(C)c(C(=O)N[C@H](Cc2ccccc2)C(=O)N2CC=CCC2c2cccnc2)c1 (stereo partly drawn) [Compound 29, 5-methoxy-2-methyl-N-((2R)-1-oxo-3-phenyl-1-(6-(pyridin-3-yl)-5,6-dihydropyridin-1(2H)-yl)propan-2-yl)benzamide]
550	O=C1c2ccccc2C(=O)N1CC(=O)N1CC=CCC1c1cccnc1 (centres unmarked) [Compound 8, 2-(2-oxo-2-(6-(pyridin-3-yl)-5,6-dihydropyridin-1(2H)-yl)ethyl)isoindoline-1,3-dione]
0.125	CCCC(=O)Nc1cccc(C(=O)NC(Cc2ccccc2)C(=O)N2CC=CCC2c2cccnc2)c1 (centres unmarked) [Compound 37, 3-butyramido-N-(1-oxo-3-phenyl-1-(6-(pyridin-3-yl)-5,6-dihydropyridin-1(2H)-yl)propan-2-yl)benzamide]
1.7	COc1cc(C(=O)N[C@H](Cc2ccccc2)C(=O)N2CC=CCC2c2cccnc2)ccc1F (stereo partly drawn) [Compound 31, 4-fluoro-3-methoxy-N-((2R)-1-oxo-3-phenyl-1-(6-(pyridin-3-yl)-5,6-dihydropyridin-1(2H)-yl)propan-2-yl)benzamide]
140	C[C@H](C(=O)N1CC=CCC1c1cccnc1)N1C(=O)c2ccccc2C1=O (stereo partly drawn) [Compound 17, 2-((2R)-1-oxo-1-(6-(pyridin-3-yl)-5,6-dihydropyridin-1(2H)-yl)propan-2-yl)isoindoline-1,3-dione]
6.5	COc1cc(OC)cc(C(=O)N[C@H](Cc2ccccc2)C(=O)N2CC=CCC2c2cccnc2)c1 (stereo partly drawn) [Compound 28, 3,5-dimethoxy-N-((2R)-1-oxo-3-phenyl-1-(6-(pyridin-3-yl)-5,6-dihydropyridin-1(2H)-yl)propan-2-yl)benzamide]
425	C[C@@H](C(=O)N1CC=CC[C@H]1c1cccnc1)N1C(=O)c2ccccc2C1=O [Compound 2, 2-((S)-1-oxo-1-((S)-6-(pyridin-3-yl)-5,6-dihydropyridin-1(2H)-yl)propan-2-yl)isoindoline-1,3-dione]
0.134	O=C(N[C@@H](Cc1ccccc1)C(=O)N1CC=CCC1c1cccnc1)c1ccco1 (stereo partly drawn) [Compound 52, N-((2S)-1-oxo-3-phenyl-1-(6-(pyridin-3-yl)-5,6-dihydropyridin-1(2H)-yl)propan-2-yl)furan-2-carboxamide]
0.25	Nc1cccc(C(=O)NC(Cc2ccccc2)C(=O)N2CC=CCC2c2cccnc2)c1 (centres unmarked) [Compound 38, 3-amino-N-(1-oxo-3-phenyl-1-(6-(pyridin-3-yl)-5,6-dihydropyridin-1(2H)-yl)propan-2-yl)benzamide]
0.346	CCCC(=O)Nc1cccc(C(=O)N[C@@H](CC2CCCCC2)C(=O)N2CC=CCC2c2cccnc2)c1 (stereo partly drawn) [Compound 66, 3-butyramido-N-((2S)-3-cyclohexyl-1-oxo-1-(6-(pyridin-3-yl)-5,6-dihydropyridin-1(2H)-yl)propan-2-yl)benzamide]
4	COc1cc(F)cc(C(=O)NC(Cc2ccccc2)C(=O)N2CC=CCC2c2cccnc2)c1 (centres unmarked) [Compound 24, 3-fluoro-5-methoxy-N-(1-oxo-3-phenyl-1-(6-(pyridin-3-yl)-5,6-dihydropyridin-1(2H)-yl)propan-2-yl)benzamide]
250	CCOc1ccc(C(=O)N[C@@H](C)C(=O)N2CC=CCC2c2cccnc2)cc1OCC (stereo partly drawn) [Compound 11, 3,4-diethoxy-N-((2S)-1-oxo-1-(6-(pyridin-3-yl)-5,6-dihydropyridin-1(2H)-yl)propan-2-yl)benzamide]
0.968	O=C(N[C@@H](Cc1ccccc1)C(=O)N1CC=CCC1c1cccnc1)c1ccc[nH]1 (stereo partly drawn) [Compound 56, N-((2S)-1-oxo-3-phenyl-1-(6-(pyridin-3-yl)-5,6-dihydropyridin-1(2H)-yl)propan-2-yl)-1H-pyrrole-2-carboxamide]
276	C[C@H](NC(=O)c1ccc([N+](=O)[O-])cc1)C(=O)N1CC=CCC1c1cccnc1 (stereo partly drawn) [Compound 13, 4-nitro-N-((2S)-1-oxo-1-(6-(pyridin-3-yl)-5,6-dihydropyridin-1(2H)-yl)propan-2-yl)benzamide]
0.114	CCCC(=O)Nc1ccc(C(=O)N[C@@H](Cc2ccccc2)C(=O)N2CC=CCC2c2cccnc2)cc1 (stereo partly drawn) [Compound 48, 4-butyramido-N-((2S)-1-oxo-3-phenyl-1-(6-(pyridin-3-yl)-5,6-dihydropyridin-1(2H)-yl)propan-2-yl)benzamide]
0.159	CCCC(=O)Nc1ccccc1C(=O)N[C@@H](Cc1ccccc1)C(=O)N1CC=CCC1c1cccnc1 (stereo partly drawn) [Compound 47, 2-butyramido-N-((2S)-1-oxo-3-phenyl-1-(6-(pyridin-3-yl)-5,6-dihydropyridin-1(2H)-yl)propan-2-yl)benzamide]
6.5	O=C(NC(Cc1ccccc1)C(=O)N1CC=CCC1c1cccnc1)c1cccc(C(F)(F)F)c1 (centres unmarked) [Compound 23, N-(1-oxo-3-phenyl-1-(6-(pyridin-3-yl)-5,6-dihydropyridin-1(2H)-yl)propan-2-yl)-3-(trifluoromethyl)benzamide]
0.25	O=C(CCCC[C@@H]1SC[C@@H]2NC(=O)N[C@@H]21)Nc1cccc(C(=O)N[C@@H](Cc2ccccc2)C(=O)N2CC=CCC2c2cccnc2)c1 (stereo partly drawn) [Compound 41, 3-{5-[(3aS,4S,6aR)-2-oxo-hexahydro-1H-thieno[3,4-d]imidazol-4-yl]pentanamido}-N-[(2S)-1-oxo-3-phenyl-1-{1,2,3,6-tetrahydro-[2,3′-bipyridin]-1-yl}propan-2-yl]benzamide]
470	COc1ccc(C(=O)N[C@@H](C)C(=O)N2CC=CCC2c2cccnc2)cc1OC (stereo partly drawn) [Compound 12, 3,4-dimethoxy-N-((2S)-1-oxo-1-(6-(pyridin-3-yl)-5,6-dihydropyridin-1(2H)-yl)propan-2-yl)benzamide]
550	CC(C)[C@@H](C(=O)N1CC=CC[C@@H]1c1cccnc1)N1C(=O)c2ccccc2C1=O (single isomer, unassigned) [Compound 4]
0.04	CCCC(=O)Nc1cccc(C(=O)NC(Cc2ccccc2)C(=O)N2CC=CCC2c2cnc3ccccc3c2)c1 (centres unmarked) [Compound 40, 3-butyramido-N-(1-oxo-3-phenyl-1-(2-(quinolin-3-yl)-3,6-dihydropyridin-1(2H)-yl)propan-2-yl)benzamide]
0.15	CCCCC(=O)Nc1cccc(C(=O)NC(Cc2ccccc2)C(=O)N2CC=CCC2c2cccnc2)c1 (centres unmarked) [Compound 36, N-(1-oxo-3-phenyl-1-(6-(pyridin-3-yl)-5,6-dihydropyridin-1(2H)-yl)propan-2-yl)-3-pentanamidobenzamide]
2	COc1cccc(C(=O)NC(Cc2ccccc2)C(=O)N2CC=CCC2c2cccnc2)c1 (centres unmarked) [Compound 16, 3-methoxy-N-(1-oxo-3-phenyl-1-(6-(pyridin-3-yl)-5,6-dihydropyridin-1 (2H)-yl)propan-2-yl)benzamide]
0.0869	CC(C)CC(=O)Nc1cccc(C(=O)N[C@@H](Cc2ccccc2)C(=O)N2CC=CCC2c2cccnc2)c1 (stereo partly drawn) [Compound 42, 3-(3-methylbutanamido)-N-((2S)-1-oxo-3-phenyl-1-(6-(pyridin-3-yl)-5,6-dihydropyridin-1(2H)-yl)propan-2-yl)benzamide]
0.21	CC(=O)Nc1cccc(C(=O)NC(Cc2ccccc2)C(=O)N2CC=CCC2c2cccnc2)c1 (centres unmarked) [Compound 39, 3-acetamido-N-(1-oxo-3-phenyl-1-(6-(pyridin-3-yl)-5,6-dihydropyridin-1(2H)-yl)propan-2-yl)benzamide]
375	C[C@@H](C(=O)N1CC=CCC1c1cccnc1)N1C(=O)c2ccccc2C1=O (stereo partly drawn) [Compound 1, 2-((2S)-1-oxo-1-(6-(pyridin-3-yl)-5,6-dihydropyridin-1(2H)-yl)propan-2-yl)isoindoline-1,3-dione]
